Laboratory results published in publication PMC12340956, “Tranylcypromine-Based LSD1 Inhibitors as Useful Agents to Reduce Viability of” (ACS Infectious Diseases, 2025).
Structures can show the parent of a compound that is named as a salt. Where two headings read alike, the source gives them in different places.

How the values were obtained:
[1] = system: human recombinant LSD1-CoREST enzymatic complex; conditions: Table S1, cited from earlier work
[2] = system: newly transformed schistosomula (NTS); test: NTS viability phenotypic screening, 72 h; conditions: for IC50: Schistosoma mansoni, read-out: IC50 (NTS viability)
Protocol: For NTS and adult worms, transparent flat-bottom 96- and 24-well plates were used, respectively (Sarstedt, Switzerland). For juvenile worms, 48-well plates were used with 3–6 worms per plate and RPMI medium with 5% FCS and 1% penicillin/streptomycin. Compounds were initially tested at 20 and 10 μM in triplicate on NTS and repeated once; each well contained 30–40 NTS. Phenotypic reference points such as motility, morphology, and granularity were used to score incubated parasites’ overall viability (scores from 0 to 3). […] Identified hits from the NTS screening were tested on adult worms. […] The experiment was conducted in duplicate and repeated; standard deviations were calculated from two wells. […] For all in vitro assays, negative controls (DMSO at the highest tested concentration) were included.

[3] = target: T1, human LSD1-CoREST complex (Homo sapiens, UniProt O60341); test: ThermoFAD thermal stability assay; assay type: binding; conditions: LSD1-CoREST thermal stability
T1 construct: made in house
Protocol: Compounds 14–22 were tested against the human LSD1-CoREST complex to determine their inhibitory activity. […] ThermoFAD assays were then performed to assess the impact of 14–22 on the thermal stability (ΔT m values, Table ) of the LSD1-CoREST complex. The most significant shifts in Tm values corresponded to the strongest binders. […] Compound 22 was not tested, considering its previous negative results.
Protein expression, thermal stability, and inhibition of human LSD1-CoREST were performed using established protocols. […] LSD1-CoREST (0.4 μM) was preincubated with the inhibitor at 25 °C for 10 min in the presence of 5% DMSO. The reaction was initiated by adding an equal volume of the substrate solution to the enzyme–inhibitor mixture, and resorufin fluorescence (excitation at 530–570 nm and emission at 580–590 nm) was detected with a Clariostar plate reader.

[4] = target: T1, human LSD1-CoREST complex; test: HRP-coupled LSD1 inhibition assay; assay type: biochemical; conditions: 10 min preincubation, read-out: IC50 (hLSD1 direct inhibition)
Protocol: Protein expression, thermal stability, and inhibition of human LSD1-CoREST were performed using established protocols. […] The reaction was initiated by adding an equal volume of the substrate solution to the enzyme–inhibitor mixture, and resorufin fluorescence (excitation at 530–570 nm and emission at 580–590 nm) was detected with a Clariostar plate reader.

[5] = system: adult worms; test: Adult worm viability phenotypic assay, 72 h; conditions: Schistosoma mansoni, read-out: IC50 (adult worm viability)
[6] = system: adult worms; test: Pairing and egg laying of adult worms; assay type: cell-based, Schistosoma mansoni; conditions: for eggs' number: 20 μM
Protocol: Selected compounds 2, 15, 18, and 19 were tested on adult worms to evaluate their effects on pairing and egg laying.

[7] = system: NTS; test: Speed-of-action assay in NTS; assay type: cell-based, Schistosoma mansoni; conditions: for Percentage of effect: NTS; for IC50: Schistosoma mansoni, read-out: IC50 (speed of action, NTS)
Source text: (§1) To better characterize a selection of our LSD1i in vitro, we assessed the onset of their action, defined as the time required for an observable antischistosomal effect. […] For detailed percentages of activity at each time point, refer to the Supporting Information (Tables S2 and S3 in Supporting Information).

[8] = system: S. mansoni juvenile forms; test: Speed-of-action assay in juvenile forms; assay type: cell-based, Schistosoma mansoni; conditions: for IC50: Schistosoma mansoni, read-out: IC50 (speed of action, juvenile forms); for Percentage of effect: juvenile forms
Source text: as §1

[9] = MTT cytotoxicity in RPE cells; assay type: cell-based; conditions: human, retinal pigment epithelial (RPE) cells
Protocol: (§2) The MTT method was used to evaluate cell viability after 72 h of treatment.
(§3) Human commercial lung diploid fibroblasts (MRC-5), and diploid retinal epithelium cells (RPE) were obtained from the American Type Culture Collection (ATCC) and kindly provided by Dr Francesca Degrassi (CNR IBPM) and maintained in minimal essential medium or DMEM-F12 medium supplemented with fetal calf serum, antibiotics, and nonessential amino acids. Cells were grown at 37 °C, in a humidified atmosphere, with 5% CO2. For experiments, cells were seeded in 200 μL of complete in each well of a 96-well microtiter plate. After 24 h, compounds were added at 5, 10, 25, and 50 μM for 72 h in sextuplicate. MTT was added (0.5 mg/mL), incubated for 4 h at 37 °C, and dissolved in 200 μL of isopropyl alcohol. Absorbance was measured at 570 nm (ELISA reader, DASIT), and cell viability was calculated as viability=(ODoftreatedcells/ODofcontrolcells)×100

[10] = MTT cytotoxicity in MRC-5 cells; assay type: cell-based; conditions: human, MRC-5 lung diploid fibroblast cells
Protocol: as §2, §3

[11] = ref 2 (SI: Fioravanti et al., ChemMedChem 2020)
[12] = ref 4 (SI: Rodriguez et al., MedChemComm 2015)
[13] = 5 μM, read-out: percentage of viability, 72 h
[14] = 10 μM, read-out: percentage of viability, 72 h
[15] = 25 μM, read-out: percentage of viability, 72 h
[16] = 50 μM, read-out: percentage of viability, 72 h
[17] = read-out: IC50 (cell viability)

In the case of `NC1CC1c1ccc(NC(=O)c2ccc(O)c3ncccc23)cc1` (centres unmarked) [Compound 1], the IC50 ([1]; ref 1 (SI: Rotili et al., J Med Chem 2014)) is listed as less than 1 µM, the “Percentage of reduction of NTS viability, 72 h” value (from here on “Percentage of reduction … 72 h”) ([2]; 10 μM) is listed as 37.9 ± 0.0% and the “Percentage of reduction … 72 h” value ([2]; 20 μM) is listed as 45.8 ± 4.2%. For the same compound, the IC50 [2] was greater than 20 µM.
In the case of `N#Cc1ccc(C(=O)Nc2ccc(C3CC3N)cc2)cc1` (centres unmarked) [Compound 17, N-(4-(2-Aminocyclopropyl)phenyl)-4-cyanobenzamide Hydrochloride], the ΔTm [3] is reported as “+8.5 °C”, the IC50 [4] is reported as 0.15 ± 0.02 µM and the “Percentage of reduction … 72 h” value ([2]; 10 μM) is reported as 25.0 ± 0.0%. For the same compound, the “Percentage of reduction … 72 h” value ([2]; 20 μM) was 31.2 ± 6.3% and the IC50 [2] was greater than 20 µM.
For `NC1CC1c1ccc(NC(=O)C(Cc2c[nH]c3ccccc23)NC(=O)OCc2ccccc2)cc1` (centres unmarked) [Compound 12], the IC50 [1, 11] is given as 0.19 ± 0.03 µM, the “Percentage of reduction … 72 h” value ([2]; 10 μM) is given as 41.4 ± 1.7% and the “Percentage of reduction … 72 h” value ([2]; 20 μM) is given as 50.0 ± 0.0%. The IC50 [2] was greater than 10 µM.
For `NC1CC1c1ccc(NC(=O)c2cc3ccccc3n2CC(=O)Nc2ccccc2)cc1` (centres unmarked) [Compound 7], the IC50 [1, 12] is listed as 0.09 ± 0.01 µM, the “Percentage of reduction … 72 h” value ([2]; 10 μM) is listed as 37.9 ± 0.0% and the “Percentage of reduction … 72 h” value ([2]; 20 μM) is listed as 66.7 ± 4.2%. The IC50 [2] was greater than 10 µM and the IC50 [5] was greater than 20 µM.
For `NC1CC1c1ccc(NC(=O)c2ccc(-c3ccccc3)cc2)cc1` (centres unmarked) [Compound 2], the “eggs' number” value ([6]; 4 h) was 0, the “eggs' number” value ([6]; 8 h) was 0 and the “eggs' number” value ([6]; 24 h) was 0. For the same compound, the “eggs' number” value ([6]; 48 h) was 0, the “eggs' number” value ([6]; 72 h) was 6 and the “effect on worm pairing” value ([6]; adult worms) was “no impact on worm pairing”. It also gave a Percentage of effect ([7]; 4 h, 10 μM) of 30.77%, a Percentage of effect ([7]; 4 h, 20 μM) of 38.46% and a Percentage of effect ([7]; 24 h, 10 μM) of 78.57%. It also gave a Percentage of effect ([7]; 24 h, 20 μM) of 82.14%, a Percentage of effect ([7]; 48 h, 10 μM) of 87.76% and a Percentage of effect ([7]; 48 h, 20 μM) of 93.88%. It also gave a Percentage of effect ([7]; 72 h, 10 μM) of 89.80%, a Percentage of effect ([7]; 72 h, 20 μM) of 100% and an IC50 ([7]; 4 h) greater than 20 µM. For the same compound, the IC50 ([7]; 24 h) was 5 µM, the IC50 ([7]; 48 h) was 4 µM and the IC50 ([7]; 72 h) was 2.3 µM. It also gave an IC50 ([8]; 4 h) greater than 20 µM, an IC50 ([8]; 24 h) of 16.2 µM and an IC50 ([8]; 48 h) greater than 20 µM. For the same compound, the IC50 ([8]; 72 h) was 5.9 µM, the Percentage of effect ([8]; 4 h, 1 μM) was 20% and the Percentage of effect ([8]; 4 h, 10 μM) was 23.33%. For the same compound, the Percentage of effect ([8]; 4 h, 20 μM) was 43.64%, the Percentage of effect ([8]; 24 h, 1 μM) was 24.14% and the Percentage of effect ([8]; 24 h, 10 μM) was 37.93%. It also gave a Percentage of effect ([8]; 24 h, 20 μM) of 57.69%, a Percentage of effect ([8]; 48 h, 1 μM) of 32.69% and a Percentage of effect ([8]; 48 h, 10 μM) of 36.45%. For the same compound, the Percentage of effect ([8]; 48 h, 20 μM) was 56.25%, the Percentage of effect ([8]; 72 h, 1 μM) was 39% and the Percentage of effect ([8]; 72 h, 10 μM) was 39.11%. It also gave a Percentage of effect ([8]; 72 h, 20 μM) of 70.83%, a viability at 72 h, 5 µM [9, 13] of 95 ± 9% and a viability at 72 h, 10 µM [9, 14] of 82 ± 11%. It also gave a viability at 72 h, 25 µM [9, 15] of 87 ± 39%, a viability at 72 h, 50 µM [9, 16] of 49 ± 9% and an IC50 at 72 h [9, 17] of 68.9 µM. The viability at 72 h, 5 µM [10, 13] was 29 ± 2%, the viability at 72 h, 10 µM [10, 14] was 26 ± 3% and the viability at 72 h, 25 µM [10, 15] was 13 ± 3%. For the same compound, the viability at 72 h, 50 µM [10, 16] was 10 ± 2%, the IC50 at 72 h [10, 17] was 5.9 µM and the IC50 [1, 11] was 0.05 ± 0.01 µM. For the same compound, the “Percentage of reduction … 72 h” value ([2]; 0.1 μM) was 43.7 ± 2.1%, the “Percentage of reduction … 72 h” value ([2]; 1 μM) was 56.9 ± 0.9% and the “Percentage of reduction … 72 h” value ([2]; 10 μM) was 98 ± 1.0%. For the same compound, the “Percentage of reduction … 72 h” value ([2]; 20 μM) was 100 ± 0.0%, the IC50 [2] was 0.26 µM and the IC50 [5] was greater than 10 µM.
In the case of `NC1CC1c1ccc(NC(=O)c2ccn(C(=O)OCc3ccccc3)c2)cc1` (centres unmarked) [Compound 6], the IC50 [1, 12] is given as 0.05 ± 0.004 µM, the “Percentage of reduction … 72 h” value ([2]; 10 μM) is given as 40.0 ± 2.0% and the “Percentage of reduction … 72 h” value ([2]; 20 μM) is given as 100 ± 0.0%. The IC50 [2] was greater than 10 µM and the IC50 [5] was greater than 20 µM.
In the case of `NC1CC1c1ccc(NC(=O)CNC(=O)OCc2ccccc2)cc1` (centres unmarked) [Compound 9], the IC50 [1, 12] is listed as 0.3 ± 0.03 µM, the “Percentage of reduction … 72 h” value ([2]; 10 μM) is listed as 37.93 ± 1.7% and the “Percentage of reduction … 72 h” value ([2]; 20 μM) is listed as 41.7 ± 4.2%. For the same compound, the IC50 [2] was greater than 20 µM.
For `Cc1ccc(C(=O)Nc2ccc(C3CC3N)cc2)cc1.Cl` (centres unmarked) [Compound 14, N-(4-(2-Aminocyclopropyl)phenyl)-4-methylbenzamide Hydrochloride], the ΔTm [3] was “+8 °C”, the IC50 [4] was 0.15 ± 0.02 µM and the “Percentage of reduction … 72 h” value ([2]; 10 μM) was 22.9 ± 2.1%. The “Percentage of reduction … 72 h” value ([2]; 20 μM) was 41.7 ± 4.2% and the IC50 [2] was greater than 20 µM.
